The numbers were not newly measured in patent US7211580B2, “Compounds, compositions, and methods” (Cytokinetics, Incorporated, priority 2002, dated 2007), which cites them from elsewhere.

The series has as its system A549 cells. The conditions noted are these: concentration that decreases rate of cell growth by fifty percent.

What is called GI50 is the concentration giving 50% growth inhibition. Consider `O=c1[nH]cc(F)c(=O)[nH]1` [5-fluorouracil], for which the GI50 is 1000 nM.

As to `COc1cccc2c1C(=O)c1c(O)c3c(c(O)c1C2=O)C[C@@](O)(C(=O)CO)C[C@@H]3O[C@H]1C[C@H](N)[C@H](O)[C@H](C)O1` [doxorubicin], the GI50 was 63 nM. On to `CC(=O)O[C@H]1C(=O)[C@@]2(C)[C@H]([C@H](OC(=O)c3ccccc3)[C@]3(O)C[C@H](OC(=O)[C@H](O)[C@@H](NC(=O)c4ccccc4)c4ccccc4)C(C)=C1C3(C)C)[C@]1(OC(C)=O)CO[C@@H]1C[C@@H]2O` [paclitaxel], for which the GI50 is 4 nM.

With `NC(=O)NO` [hydroxyurea], the GI50 is 500000 nM.
